{"source": "patent US20080112910A1", "about": "“Cool feeling composition, cool feeling auxiliary composition, and use thereof” (priority 2002, published 2008)", "origin": "cited, not measured here", "details": "as compared with menthol", "data": [{"smiles": "COC(=O)c1ccccc1O", "note": "[methyl salicylate]", "values": [{"measurement": "stimulation of cool feeling", "result": "very weak"}, {"measurement": "stimulation of hot feeling", "result": "strong"}]}]}
